Results published in patent publication US8952024B2, “Herbicidal pyrimidone derivatives” (E I du Pont de Nemours and Company, priority 2009, dated 2015).

How the values were obtained:
Assay type in all cases: in vivo
[1] = test system: Italian ryegrass (Lolium multiflorum); assay: Test B pre-/postemergence plant response; details: for Plant response rating, Ryegrass, Italian: Postemergence
How it was run: (§1)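 Visual ratings on a 0–100 scale (100 = complete control) were made versus untreated controls 13–15 days after treatment in a greenhouse. Compounds in surfactant-containing non-phytotoxic solvent were applied preemergence to seeds in loam–sand blend or postemergence to 1- to 4-leaf plants (2–18 cm).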

[2] = test system: bermudagrass (Cynodon dactylon); assay: Test B pre-/postemergence plant response; details: for Plant response rating, Bermudagrass: Postemergence
How it was run: as §1

[3] = test system: blackgrass (Alopecurus myosuroides); assay: Test B pre-/postemergence plant response; details: for Plant response rating, Blackgrass: Postemergence
How it was run: as §1

[4] = test system: corn (Zea mays); assay: Test B pre-/postemergence plant response; details: for Plant response rating, Corn: Postemergence
How it was run: as §1

[5] = test system: downy bromegrass (Bromus tectorum); assay: Test B pre-/postemergence plant response; details: for Plant response rating, Bromegrass, Downy: Postemergence
How it was run: as §1

[6] = test system: giant foxtail (Setaria faberii); assay: Test B pre-/postemergence plant response; details: for Plant response rating, Foxtail, Giant: Postemergence
How it was run: as §1

[7] = test system: goosegrass (Eleusine indica); assay: Test B pre-/postemergence plant response; details: for Plant response rating, Goosegrass: Postemergence
How it was run: as §1

[8] = test system: green foxtail (Setaria viridis); assay: Test B pre-/postemergence plant response; details: for Plant response rating, Foxtail, Green: Postemergence
How it was run: as §1

[9] = test system: johnsongrass (Sorghum halepense); assay: Test B pre-/postemergence plant response; details: for Plant response rating, Johnsongrass: Postemergence
How it was run: as §1

[10] = test system: morningglory (Ipomoea coccinea); assay: Test B pre-/postemergence plant response; details: for Plant response rating, Morningglory: Postemergence
How it was run: as §1

[11] = test system: pigweed (Amaranthus retroflexus); assay: Test B pre-/postemergence plant response; details: for Plant response rating, Pigweed: Postemergence
How it was run: as §1

[12] = test system: ragweed (common ragweed, Ambrosia elatior); assay: Test B pre-/postemergence plant response; details: for Plant response rating, Ragweed: Postemergence
How it was run: as §1

[13] = test system: soybean (Glycine max); assay: Test B pre-/postemergence plant response; details: for Plant response rating, Soybean: Postemergence
How it was run: as §1

[14] = test system: velvetleaf (Abutilon theophrasti); assay: Test B pre-/postemergence plant response; details: for Plant response rating, Velvetleaf: Postemergence
How it was run: as §1

[15] = test system: wheat (Triticum aestivum); assay: Test B pre-/postemergence plant response; details: for Plant response rating, Wheat: Postemergence
How it was run: as §1

[16] = test system: canarygrass (Phalaris minor); assay: Test B postemergence plant response; details: for Plant response rating, Canarygrass: Postemergence
How it was run: (§2)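 Visual ratings from 0 (no effect) to 100 (complete control), made against controls 13–15 days after treatment, kept in a greenhouse. Compounds were applied postemergence to potted plants at the 1- to 4-leaf stage (2–18 cm).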

[17] = test system: chickweed (Stellaria media); assay: Test B postemergence plant response; details: for Plant response rating, Chickweed: Postemergence
How it was run: as §2

[18] = test system: winter barley (Hordeum vulgare); assay: Test B postemergence plant response; details: for Plant response rating, Barley: Postemergence
How it was run: as §2

[19] = 62 g ai/ha, postemergence, 0 is no effect, 100 is complete control, 13 to 15 days
[20] = 31 g ai/ha, 0 to 100 scale (0 no effect, 100 complete control)
[21] = 125 g ai/ha, scale 0 to 100 (0 no effect, 100 complete control)
[22] = 250 g ai/ha, scale 0 to 100 (0 no effect, 100 complete control), 13 to 15 days

CCCn1c(-c2cccc(F)c2)ncc(C(=O)C2=C(O)CCCC2=O)c1=O [Compound 127]
35: Plant response rating, Canarygrass [16, 21] | Plant response rating, Barley [18, 21]
80: Plant response rating, Foxtail, Giant [6, 20] | Plant response rating, Johnsongrass [9, 21] | Morningglory plant response rating (0 to 100 scale) [10, 19] | Plant response rating, Pigweed [11, 20]
70: Johnsongrass plant response rating (0 to 100 scale) [9, 19] | Plant response rating, Ragweed [12, 20]
20: Blackgrass plant response rating (0 to 100 scale) [3, 19] | Plant response rating, Bromegrass, Downy [5, 21] | Barley plant response rating (0 to 100 scale) [18, 19]
90: Plant response rating, Foxtail, Giant [6, 22] | Plant response rating, Foxtail, Green [8, 21] | Plant response rating, Morningglory [10, 21] | Plant response rating, Velvetleaf [14, 20]
95: Bermudagrass plant response rating (0 to 100 scale) [2, 19] | Plant response rating, Bermudagrass [2, 20] | Plant response rating, Foxtail, Green [8, 22] | Plant response rating, Johnsongrass [9, 22] | Pigweed plant response rating (0 to 100 scale) [11, 19] | Plant response rating, Pigweed [11, 21] | Plant response rating, Soybean [13, 20] | Velvetleaf plant response rating (0 to 100 scale) [14, 19]
60: Plant response rating, Canarygrass [16, 22] | Plant response rating, Barley [18, 22]
100: Plant response rating, Pigweed [11, 22] | Plant response rating, Velvetleaf [14, 21] | Plant response rating, Velvetleaf [14, 22]
10: Bromegrass, Downy plant response rating (0 to 100 scale) [5, 19] | Wheat plant response rating (0 to 100 scale) [15, 19] | Canarygrass plant response rating (0 to 100 scale) [16, 19]
0: Plant response rating, Ryegrass, Italian [1, 20] | Plant response rating, Barley [18, 20]
25: Plant response rating, Blackgrass [3, 21] | Corn plant response rating (0 to 100 scale) [4, 19] | Plant response rating, Corn [4, 21] | Plant response rating, Wheat [15, 21]
75: Plant response rating, Corn [4, 22] | Goosegrass plant response rating (0 to 100 scale) [7, 19] | Plant response rating, Goosegrass [7, 21] | Plant response rating, Foxtail, Green [8, 20] | Chickweed plant response rating (0 to 100 scale) [17, 19]
5: Ryegrass, Italian plant response rating (0 to 100 scale) [1, 19] | Plant response rating, Ryegrass, Italian [1, 21] | Plant response rating, Blackgrass [3, 20] | Plant response rating, Corn [4, 20] | Plant response rating, Bromegrass, Downy [5, 20] | Plant response rating, Wheat [15, 20] | Plant response rating, Canarygrass [16, 20]
40: Plant response rating, Blackgrass [3, 22] | Plant response rating, Bromegrass, Downy [5, 22] | Plant response rating, Wheat [15, 22]
85: Foxtail, Giant plant response rating (0 to 100 scale) [6, 19] | Plant response rating, Foxtail, Giant [6, 21] | Plant response rating, Goosegrass [7, 22] | Foxtail, Green plant response rating (0 to 100 scale) [8, 19] | Ragweed plant response rating (0 to 100 scale) [12, 19]
98: Plant response rating, Bermudagrass [2, 21] | Plant response rating, Bermudagrass [2, 22] | Plant response rating, Morningglory [10, 22] | Plant response rating, Ragweed [12, 21] | Plant response rating, Ragweed [12, 22] | Soybean plant response rating (0 to 100 scale) [13, 19] | Plant response rating, Soybean [13, 21] | Plant response rating, Soybean [13, 22] | Plant response rating, Chickweed [17, 21] | Plant response rating, Chickweed [17, 22]
65: Plant response rating, Goosegrass [7, 20] | Plant response rating, Johnsongrass [9, 20] | Plant response rating, Morningglory [10, 20] | Plant response rating, Chickweed [17, 20]
30: Plant response rating, Ryegrass, Italian [1, 22]
